From patent publication US20250115569A1, “SULFONAMIDE COMPOUNDS FOR THE TREATMENT OF NEUROLOGICAL CONDITIONS” (LARIO THERAPEUTICS LIMITED, priority 2021, published 2025)

Target: Cav2.3 (Homo sapiens, UniProt Q15878)
Assay: Human Cav2.3 channel calcium-influx assay
Format: cell-based
Details: Fluo8 fluorescence, HEK-293 T-Rex/Kir2.1/Cav2.3e cells, without pluronic acid, read-out: Cav2.3 (pIC50) (converted)
Outline: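 Signal = peak fluorescence (5–130 s) minus baseline (1–2 s), normalized to neutral (0) and inhibitor (−100) controls as % effect. Depolarization used final 20 mM KCl, 130 mM NaCl, 2 mM CaCl2, after 3 min RT compound exposure (30 μM top, half-log, 8 points, 0.3% DMSO) in doxycycline-induced HEK-293 T-Rex/Kir2.1/Cav2.3e-β4-α2δ1 cells with Fluo8 NW.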

Sequence of Cav2.3 (Q15878 whole entry, looked up): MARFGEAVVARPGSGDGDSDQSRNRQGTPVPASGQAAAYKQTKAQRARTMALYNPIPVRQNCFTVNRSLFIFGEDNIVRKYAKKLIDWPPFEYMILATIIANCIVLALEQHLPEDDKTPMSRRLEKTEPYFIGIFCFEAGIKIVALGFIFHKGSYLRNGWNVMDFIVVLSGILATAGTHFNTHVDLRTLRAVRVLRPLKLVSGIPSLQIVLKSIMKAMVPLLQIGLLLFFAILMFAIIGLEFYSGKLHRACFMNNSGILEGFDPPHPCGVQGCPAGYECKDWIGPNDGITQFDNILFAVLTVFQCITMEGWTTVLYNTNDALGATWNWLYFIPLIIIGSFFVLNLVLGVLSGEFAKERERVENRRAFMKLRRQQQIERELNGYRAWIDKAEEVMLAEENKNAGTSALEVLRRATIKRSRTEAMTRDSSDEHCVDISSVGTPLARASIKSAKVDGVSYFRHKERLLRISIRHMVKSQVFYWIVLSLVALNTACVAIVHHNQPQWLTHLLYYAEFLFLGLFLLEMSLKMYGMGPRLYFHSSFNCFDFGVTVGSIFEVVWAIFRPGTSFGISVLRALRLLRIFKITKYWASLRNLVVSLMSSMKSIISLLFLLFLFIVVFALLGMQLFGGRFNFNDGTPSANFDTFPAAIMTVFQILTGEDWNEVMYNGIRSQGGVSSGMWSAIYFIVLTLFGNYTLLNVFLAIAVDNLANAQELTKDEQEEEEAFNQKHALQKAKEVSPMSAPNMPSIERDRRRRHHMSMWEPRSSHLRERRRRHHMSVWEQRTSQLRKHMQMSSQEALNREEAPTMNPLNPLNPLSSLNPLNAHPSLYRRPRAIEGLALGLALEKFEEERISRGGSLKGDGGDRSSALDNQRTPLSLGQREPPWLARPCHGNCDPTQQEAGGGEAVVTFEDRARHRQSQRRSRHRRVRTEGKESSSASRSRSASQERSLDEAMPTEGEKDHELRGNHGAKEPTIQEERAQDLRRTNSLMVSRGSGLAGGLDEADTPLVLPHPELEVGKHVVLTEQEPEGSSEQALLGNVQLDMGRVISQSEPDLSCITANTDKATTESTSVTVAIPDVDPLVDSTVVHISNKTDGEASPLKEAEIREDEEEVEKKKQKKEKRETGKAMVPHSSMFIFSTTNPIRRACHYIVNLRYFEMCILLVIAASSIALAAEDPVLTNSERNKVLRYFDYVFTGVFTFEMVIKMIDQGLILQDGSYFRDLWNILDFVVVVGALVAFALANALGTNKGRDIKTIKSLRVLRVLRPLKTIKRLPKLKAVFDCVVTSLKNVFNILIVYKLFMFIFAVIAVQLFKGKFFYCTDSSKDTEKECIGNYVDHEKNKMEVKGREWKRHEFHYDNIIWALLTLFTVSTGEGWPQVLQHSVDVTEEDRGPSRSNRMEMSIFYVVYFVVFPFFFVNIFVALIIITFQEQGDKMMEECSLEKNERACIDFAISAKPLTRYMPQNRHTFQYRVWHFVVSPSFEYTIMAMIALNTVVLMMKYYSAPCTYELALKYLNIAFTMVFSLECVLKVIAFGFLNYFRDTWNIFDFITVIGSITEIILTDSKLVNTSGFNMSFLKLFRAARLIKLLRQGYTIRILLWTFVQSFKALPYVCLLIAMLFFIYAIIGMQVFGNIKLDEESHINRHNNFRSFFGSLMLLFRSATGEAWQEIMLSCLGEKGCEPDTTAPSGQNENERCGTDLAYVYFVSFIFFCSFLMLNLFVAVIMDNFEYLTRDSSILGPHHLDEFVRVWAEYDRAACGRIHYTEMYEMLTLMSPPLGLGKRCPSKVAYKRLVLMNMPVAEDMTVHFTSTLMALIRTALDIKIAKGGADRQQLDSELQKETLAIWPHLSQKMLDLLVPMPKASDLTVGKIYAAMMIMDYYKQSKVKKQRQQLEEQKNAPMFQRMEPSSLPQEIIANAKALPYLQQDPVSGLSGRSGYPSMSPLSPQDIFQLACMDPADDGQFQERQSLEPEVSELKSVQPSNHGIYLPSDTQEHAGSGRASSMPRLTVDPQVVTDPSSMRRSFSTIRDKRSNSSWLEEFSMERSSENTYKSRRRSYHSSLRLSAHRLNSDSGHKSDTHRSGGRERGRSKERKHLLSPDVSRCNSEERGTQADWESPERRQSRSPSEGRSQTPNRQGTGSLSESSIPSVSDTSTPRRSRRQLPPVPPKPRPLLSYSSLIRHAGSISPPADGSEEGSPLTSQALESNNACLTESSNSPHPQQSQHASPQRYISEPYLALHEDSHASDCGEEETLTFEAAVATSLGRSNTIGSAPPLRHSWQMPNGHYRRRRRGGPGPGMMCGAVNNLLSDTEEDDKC

IC50 [µM]	SMILES
6.76	CCN([C@@H](c1ccc(F)cc1)C(F)(F)F)S(=O)(=O)c1ccc(=O)n(C)c1 [Example 102, (S)—N-ethyl-1-methyl-6-oxo-N-(2,2,2-trifluoro-1-(4-fluorophenyl)ethyl)-1,6-dihydropyridine-3-sulfonamide]
5.62	CCN([C@@H](c1ccc(OC(F)(F)F)cc1)C(F)(F)F)S(=O)(=O)c1cncc(C#N)c1 [Example 118, (S)-5-Cyano-N-ethyl-N-(2,2,2-trifluoro-1-(4-(trifluoromethoxy)phenyl)ethyl)pyridine-3-sulfonamide]
0.0871	CCN([C@H](c1ccc(OC(F)(F)F)cc1)C(F)(F)F)S(=O)(=O)c1cncc(C#N)c1 [Example 119, (R)-5-Cyano-N-ethyl-N-(2,2,2-trifluoro-1-(4-(trifluoromethoxy)phenyl)ethyl)pyridine-3-sulfonamide]
0.132	CCN(C(c1ccc(F)cc1)C(F)(F)F)S(=O)(=O)c1cncc(C(C)=O)c1 (centres unmarked) [Example 120, 5-acetyl-N-ethyl-N-(2,2,2-trifluoro-1-(4-fluorophenyl)ethyl)pyridine-3-sulfonamide]
0.191	CCN(C(c1ccc(F)cc1)C(F)(F)F)S(=O)(=O)c1cnnc(OC)c1 (centres unmarked) [Example 121, N-ethyl-6-methoxy-N-(2,2,2-trifluoro-1-(4-fluorophenyl)ethyl)pyridazine-4-sulfonamide]
7.24	CCN([C@@H](c1ccc(F)cc1)C(F)(F)F)S(=O)(=O)c1cnnc(OC)c1 [Example 122, (S)—N-ethyl-6-methoxy-N-(2,2,2-trifluoro-1-(4-fluorophenyl)ethyl)pyridazine-4-sulfonamide]
0.166	CCN([C@H](c1ccc(F)cc1)C(F)(F)F)S(=O)(=O)c1cnnc(OC)c1 [Example 123, (R)—N-ethyl-6-methoxy-N-(2,2,2-trifluoro-1-(4-fluorophenyl)ethyl)pyridazine-4-sulfonamide]
30.2	CCN([C@@H](c1ccc(OC)cc1)C(F)(F)F)S(=O)(=O)C1CCOCC1 [Example 126, (S)—N-ethyl-N-(2,2,2-trifluoro-1-(4-methoxyphenyl)ethyl)tetrahydro-2H-pyran-4-sulfonamide]
0.309	CCN([C@H](c1ccc(OC)cc1)C(F)(F)F)S(=O)(=O)C1CCOCC1 [Example 127, (R)—N-ethyl-N-(2,2,2-trifluoro-1-(4-methoxyphenyl)ethyl)tetrahydro-2H-pyran-4-sulfonamide]
14.1	COc1ccc([C@H](N(C)S(=O)(=O)C2CCOCC2)C(F)(F)F)cc1 [Example 128, (S)—N-methyl-N-(2,2,2-trifluoro-1-(4-methoxyphenyl)ethyl)tetrahydro-2H-pyran-4-sulfonamide]
1.17	COc1ccc([C@@H](N(C)S(=O)(=O)C2CCOCC2)C(F)(F)F)cc1 [Example 129, (R)—N-methyl-N-(2,2,2-trifluoro-1-(4-methoxyphenyl)ethyl)tetrahydro-2H-pyran-4-sulfonamide]
0.0724	CCN([C@H](c1ccc(F)cc1)C(F)(F)F)S(=O)(=O)c1ccn2ncnc2c1 [Example 137, (R)—N-ethyl-N-(2,2,2-trifluoro-1-(4-fluorophenyl)ethyl)-[1,2,4]triazolo[1,5-a]pyridine-7-sulfonamide]
0.562	CCN([C@H](c1ccc(F)cc1)C(F)(F)F)S(=O)(=O)c1cnc2[nH]ccc2n1 [Example 140, (R)—N-ethyl-N-(2,2,2-trifluoro-1-(4-fluorophenyl)ethyl)-5H-pyrrolo[2,3-b]pyrazine-2-sulfonamide]
0.575	CCN([C@H](c1ccc(F)cc1)C(F)(F)F)S(=O)(=O)c1cnc2c(C#N)cnn2c1 [Example 141, (R)-3-cyano-N-ethyl-N-(2,2,2-trifluoro-1-(4-fluorophenyl)ethyl)pyrazolo[1,5-a]pyrimidine-6-sulfonamide]
1.07	CCN([C@H](c1ccc(F)cc1)C(F)(F)F)S(=O)(=O)c1cn2ccccc2n1 [Example 142, (R)—N-ethyl-N-(2,2,2-trifluoro-1-(4-fluorophenyl)ethyl)imidazo[1,2-a]pyridine-2-sulfonamide]
4.17	CCN([C@H](c1ccc(F)cc1)C(F)(F)F)S(=O)(=O)c1nc2ccccn2c1Cl [Example 143, (R)-3-chloro-N-ethyl-N-(2,2,2-trifluoro-1-(4-fluorophenyl)ethyl)imidazo[1,2-a]pyridine-2-sulfonamide]
1.78	CCN([C@H](c1ccc(F)cc1)C(F)(F)F)S(=O)(=O)c1nc2cnccn2n1 [Example 144, (R)—N-ethyl-N-(2,2,2-trifluoro-1-(4-fluorophenyl)ethyl)-[1,2,4]triazolo[1,5-a]pyrazine-2-sulfonamide]
0.0251	CCN([C@H](c1ccc(F)cc1)C(F)(F)F)S(=O)(=O)c1ccn2nncc2c1 [Example 145, (R)—N-ethyl-N-(2,2,2-trifluoro-1-(4-fluorophenyl)ethyl)-[1,2,3]triazolo[1,5-a]pyridine-5-sulfonamide]

The remaining lines, values behind:

SMILES	IC50 [µM]
CCN(C(c1ccc(F)cc1)C(F)(F)F)S(=O)(=O)c1ccc(C2CNC2)s1 (centres unmarked) [Example 47, 5-(Azetidin-3-yl)-N-ethyl-N-(2,2,2-trifluoro-1-(4-fluorophenyl)ethyl)thiophene-2-sulfonamide]	0.501
CCN(C(c1ccc(F)cc1)C(F)(F)F)S(=O)(=O)c1csc(C(=O)OC)n1 (centres unmarked) [Example 48, methyl 4-(N-ethyl-N-(2,2,2-trifluoro-1-(4-fluorophenyl)ethyl)sulfamoyl)thiazole-2-carboxylate]	2
CCN(C(c1ccc(F)cc1)C(F)(F)F)S(=O)(=O)c1csc(C(N)=O)n1 (centres unmarked) [Example 49, 4-(N-ethyl-N-(2,2,2-trifluoro-1-(4-fluorophenyl)ethyl)sulfamoyl)thiazole-2-carboxamide]	0.339
CCN(C(c1ccc(F)cc1)C(F)(F)F)S(=O)(=O)c1csc(C#N)n1 (centres unmarked) [Example 50, 2-cyano-N-ethyl-N-(2,2,2-trifluoro-1-(4-fluorophenyl)ethyl)thiazole-4-sulfonamide]	0.24
CCN(C(c1ccc(F)cc1)C(F)(F)F)S(=O)(=O)c1cncc(C(N)=O)c1 (centres unmarked) [Example 51, 5-(N-ethyl-N-(2,2,2-trifluoro-1-(4-fluorophenyl)ethyl)sulfamoyl)nicotinamide]	0.372
CCN(C(c1ccc(Cl)cc1)C(F)(F)F)S(=O)(=O)c1cncc(C#N)c1 (centres unmarked) [Example 54, N-(1-(4-chlorophenyl)-2,2,2-trifluoroethyl)-5-cyano-N-ethylpyridine-3-sulfonamide]	0.0372
N#Cc1cncc(S(=O)(=O)N(CCF)C(c2ccc(F)cc2)C(F)(F)F)c1 (centres unmarked) [Example 64, 5-Cyano-N-(2-fluoroethyl)-N-(2,2,2-trifluoro-1-(4-fluorophenyl)ethyl)pyridine-3-sulfonamide]	0.178
N#Cc1cncc(S(=O)(=O)N(CCF)[C@@H](c2ccc(F)cc2)C(F)(F)F)c1 [Example 65, (S)-5-Cyano-N-(2-fluoroethyl)-N-(2,2,2-trifluoro-1-(4-fluorophenyl)ethyl)pyridine-3-sulfonamide]	3.8
N#Cc1cncc(S(=O)(=O)N(CCF)[C@H](c2ccc(F)cc2)C(F)(F)F)c1 [Example 66, (R)-5-cyano-N-(2-fluoroethyl)-N-(2,2,2-trifluoro-1-(4-fluorophenyl)ethyl)pyridine-3-sulfonamide]	0.0407
CN(C(c1ccc(C(F)(F)F)cc1)C(F)(F)F)S(=O)(=O)c1cncc(C#N)c1 (centres unmarked) [Example 67, 5-Cyano-N-methyl-N-(2,2,2-trifluoro-1-(4-(trifluoromethyl)phenyl)ethyl)pyridine-3-sulfonamide]	0.107
CN([C@@H](c1ccc(C(F)(F)F)cc1)C(F)(F)F)S(=O)(=O)c1cncc(C#N)c1 [Example 69, (S)-5-Cyano-N-methyl-N-(2,2,2-trifluoro-1-(4-(trifluoromethyl)phenyl)ethyl)pyridine-3-sulfonamide]	5.62
CCN(C(c1ccc(F)cc1)C(F)(F)F)S(=O)(=O)c1ncc(C#N)s1 (centres unmarked) [Example 80, 5-Cyano-N-ethyl-N-(2,2,2-trifluoro-1-(4-fluorophenyl)ethyl)thiazole-2-sulfonamide]	0.447
CCN(C(c1ccc(F)cc1)C(F)(F)F)S(=O)(=O)c1nccs1 (centres unmarked) [Example 81, N-ethyl-N-(2,2,2-trifluoro-1-(4-fluorophenyl)ethyl)thiazole-2-sulfonamide]	0.955
CCN(C(c1ccc(F)cc1)C(F)(F)F)S(=O)(=O)c1cnc(C#N)s1 (centres unmarked) [Example 82, 2-Cyano-N-ethyl-N-(2,2,2-trifluoro-1-(4-fluorophenyl)ethyl)thiazole-5-sulfonamide]	0.912
CCN([C@@H](c1ccc(F)cc1)C(F)(F)F)S(=O)(=O)c1cnc(C#N)s1 [Example 83, (S)-2-Cyano-N-ethyl-N-(2,2,2-trifluoro-1-(4-fluorophenyl)ethyl)thiazole-5-sulfonamide]	3.8
CCN([C@H](c1ccc(F)cc1)C(F)(F)F)S(=O)(=O)c1cnc(C#N)s1 [Example 84]	0.871
CCN(C(c1ccc(F)cc1)C(F)(F)F)S(=O)(=O)c1cc(N2CCOCC2)cs1 (centres unmarked) [Example 92, N-ethyl-4-morpholino-N-(2,2,2-trifluoro-1-(4-fluorophenyl)ethyl)thiophene-2-sulfonamide]	1.32
CCN(C(c1ccc(F)cc1)C(F)(F)F)S(=O)(=O)c1cncc(C2COC2)c1 (centres unmarked) [Example 99, N-ethyl-5-(oxetan-3-yl)-N-(2,2,2-trifluoro-1-(4-fluorophenyl)ethyl)pyridine-3-sulfonamide]	0.275
CCN(C(c1ccc(F)cc1)C(F)(F)F)S(=O)(=O)c1ccc(=O)n(C)c1 (centres unmarked) [Example 100, N-ethyl-1-methyl-6-oxo-N-(2,2,2-trifluoro-1-(4-fluorophenyl)ethyl)-1,6-dihydropyridine-3-sulfonamide]	0.38
CCN([C@H](c1ccc(F)cc1)C(F)(F)F)S(=O)(=O)c1ccc(=O)n(C)c1 [Example 101, (R)—N-ethyl-1-methyl-6-oxo-N-(2,2,2-trifluoro-1-(4-fluorophenyl)ethyl)-1,6-dihydropyridine-3-sulfonamide]	0.182
